Measurements published in patent US12721905B2, “Combination of anti-HER2 antibody-drug conjugate and PARP1 selective inhibitor” (AstraZeneca UK Limited, priority 2020, dated 2026).
Values belong to the molecule of their own block, whether it stands above or below them.

Assays:
[1] = test system: BRCA2 (−/−) DLD1 cells; assay: PARP proliferation assay (4 day compound dosing), BRCA2 (-/-) DLD1; format: cell-based; conditions: Homo sapiens, DLD-1, 96 h, read-out: BRCA2 −/− DLD-1 prolif 4 d IC50
[2] = test system: DLD1 cells; assay: PARP proliferation assay (4 day compound dosing), WT DLD1; format: cell-based; conditions: Homo sapiens, DLD-1, 96 h, read-out: WT DLD-1 prolif 4 d IC50
[3] = target: T1, Recombinant full length PARP2 protein (Homo sapiens, UniProt Q9UGN5); assay: PARP fluorescence anisotropy binding assay, PARP2
T1 construct: Recombinant full length PARP2 protein

[4] = test system: NCI-N87 xenograft; assay: Antitumor test in vivo, NCI-N87 xenograft (Example 5); design: species or system Female Nude mice; conditions: AZD5305 1 mg/kg PO QD for 28 days
[5] = test system: 5637; assay: High-throughput combination screen, 7-day CellTiter-Glo cell viability (Example 6), 5637; format: cell-based; conditions: AZD5305 as single agent, HER2 mutant cell line 5637
Procedure: Combination activity was assessed based on a combination of the ΔEmax and Loewe synergy scores.
FIGS. 18A and 19A show matrices of measured cell viability signals. […] Values in the box represent the ratio of cells treated with drug A+B compared to DMSO control at day 7. All values are normalised to cell viability values at day 0. Values between 0 and 100 represent % growth inhibition and values above 100 represent cell death.
FIGS. 18B and 19B show Loewe excess matrices. Values in the box represent excess values calculated by the Loewe additivity model.
FIGS. 18C and 19C show HSA excess matrices. Values in the box represent excess values calculated by the HSA (Highest Single Agent) model.

T1 sequence (Q9UGN5 whole entry): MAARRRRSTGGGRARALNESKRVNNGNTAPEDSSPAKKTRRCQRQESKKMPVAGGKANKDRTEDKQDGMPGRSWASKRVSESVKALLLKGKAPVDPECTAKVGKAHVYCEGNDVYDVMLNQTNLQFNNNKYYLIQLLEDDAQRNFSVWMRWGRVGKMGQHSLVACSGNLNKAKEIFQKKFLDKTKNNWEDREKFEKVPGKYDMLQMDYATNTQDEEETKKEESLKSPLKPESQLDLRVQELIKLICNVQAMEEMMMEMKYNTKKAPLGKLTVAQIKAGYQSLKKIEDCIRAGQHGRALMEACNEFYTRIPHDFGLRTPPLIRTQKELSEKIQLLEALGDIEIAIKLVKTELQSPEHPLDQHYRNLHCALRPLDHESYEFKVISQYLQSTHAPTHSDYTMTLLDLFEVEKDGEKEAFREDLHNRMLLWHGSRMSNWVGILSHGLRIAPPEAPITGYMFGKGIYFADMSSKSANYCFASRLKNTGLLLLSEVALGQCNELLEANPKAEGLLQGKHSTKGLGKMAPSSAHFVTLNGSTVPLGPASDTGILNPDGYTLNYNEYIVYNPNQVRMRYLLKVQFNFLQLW

Structure (SMILES): CCc1cc2ncc(CN3CCN(c4ccc(C(=O)NC)nc4)CC3)cc2[nH]c1=O [Example 4]
IC50 [1]: > 17 nM

IC50 [1]: 4 nM | IC50 [2]: > 30000 nM
Structure (SMILES): CCc1cc2ncc(CN3CCN(c4ccc(C(=O)NC)nc4C(F)(F)F)CC3)cc2[nH]c1=O [Example 30]

IC50 [3]: 3000 nM
Structure (SMILES): CCc1cc2ncc(CN3CCN(c4ccc(C(=O)NC)nc4C)CC3)cc2[nH]c1=O [Example 31]

Structure (SMILES): CCc1cc2ncc(CN3CCN(c4ccc(C(=O)NC)nc4)CC3)cc2[nH]c1=O [Synthesis Example 4, 5-[4-[(7-ethyl-6-oxo-5H-1,5-naphthyridin-3-yl)methyl]piperazin-1-yl]-N-methyl-pyridine-2-carboxamide]
TGI % day 41 [4]: 40% | single agent activity [5]: not active
